# In patent US20260116910A1, “POLYCYCLIC COMPOUNDS AND METHODS THEREOF” (HEPAITECH (BEIJING) BIOPHARMA TECHNOLOGY CO., LTD., priority 2021, published 2026):
# Where two headings read alike, the source gives them in different places.
# Columns and labels:
# MRGPRX4 = MRGPRX4 (Homo sapiens, UniProt Q96LA9); test: MRGPRX4 activation, Fluo-8 Ca2+ FLIPR assay in HEK293T cells stably expressing MRGPRX4; format: cell-based; design: key to MRGPRX4 activation, Average / MRGPRX4 activation, Ave.: fluorescence change dF/F0; settings: for EC50: MRGPRX4 activation, Ca2+ fluorescence, no activation in tested range reported as III, read-out: Activity (EC50 μM)
# MRGPRX4, sequence (Q96LA9 whole entry): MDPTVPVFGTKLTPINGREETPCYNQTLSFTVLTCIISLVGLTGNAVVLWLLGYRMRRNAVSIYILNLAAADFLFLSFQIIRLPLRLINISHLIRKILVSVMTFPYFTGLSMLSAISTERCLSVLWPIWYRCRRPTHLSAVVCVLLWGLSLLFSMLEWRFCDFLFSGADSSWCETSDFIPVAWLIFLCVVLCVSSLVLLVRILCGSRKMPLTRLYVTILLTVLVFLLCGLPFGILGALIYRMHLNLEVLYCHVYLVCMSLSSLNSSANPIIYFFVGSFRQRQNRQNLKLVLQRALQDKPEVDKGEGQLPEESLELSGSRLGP
# Summary of the method: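 Response measured as dF/F0: 30 s baseline, then 150 s after compound addition on FLIPR Tetra, in HHBS after 40-60 min room-temperature loading with 2 μM Fluo-8 AM.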
# human FXR (NR1H4) = target: T1, human FXR (NR1H4) (Homo sapiens, UniProt Q96RI1); test: Human FXR (NR1H4) agonist assessment, FXRE-NanoLuc reporter in HEK293T cells; format: cell-based; settings: for EC50: read-out: EC50
# T1 sequence (Q96RI1 1-476 isoform Q96RI1-1): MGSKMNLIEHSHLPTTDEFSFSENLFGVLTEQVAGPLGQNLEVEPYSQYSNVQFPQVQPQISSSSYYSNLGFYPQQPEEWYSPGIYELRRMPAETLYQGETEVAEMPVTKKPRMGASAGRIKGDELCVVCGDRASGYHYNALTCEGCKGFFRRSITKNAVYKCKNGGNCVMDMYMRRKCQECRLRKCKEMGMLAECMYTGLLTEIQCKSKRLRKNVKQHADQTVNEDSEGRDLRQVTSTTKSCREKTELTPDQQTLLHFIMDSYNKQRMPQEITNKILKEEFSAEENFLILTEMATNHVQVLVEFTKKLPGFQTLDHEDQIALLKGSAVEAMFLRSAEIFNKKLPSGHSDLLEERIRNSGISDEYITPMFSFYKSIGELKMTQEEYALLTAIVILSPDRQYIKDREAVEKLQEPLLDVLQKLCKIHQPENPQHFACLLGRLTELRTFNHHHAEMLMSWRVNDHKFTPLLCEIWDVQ
# Summary of the method: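 Read-out was NanoLuc luminescence in culture medium, measured 5 min after adding coelenterazine. Cells were HEK293T stably carrying human FXR and an FXRE reporter, exposed to compound for 24 hr at 37 °C. Vehicle was 0.01% DMSO. EC50 was obtained from sigmoid fits of gradient dilutions.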
# [1] = FXR activation, HEK293T FXRE-NanoLuc reporter, 24 hr
Structure (SMILES),"MRGPRX4 activation, fluorescence change (dF/F0), Average (MRGPRX4; Conc. (Log[M]) −4)","MRGPRX4 activation, fluorescence change (dF/F0), Average (MRGPRX4; Conc. (Log[M]) −4.5)","MRGPRX4 activation, fluorescence change (dF/F0), Average (MRGPRX4; Conc. (Log[M]) −5)","MRGPRX4 activation, fluorescence change (dF/F0), Average (MRGPRX4; Conc. (Log[M]) −5.5)","MRGPRX4 activation, fluorescence change (dF/F0), Average (MRGPRX4; Conc. (Log[M]) −6)","MRGPRX4 activation, fluorescence change (dF/F0), Average (MRGPRX4; Conc. (Log[M]) −7)",EC50 (MRGPRX4),"Efficacy (maximum measured induction of NanoLuc, normalized to CDCA set as 100%) (human FXR (NR1H4); [1])",EC50 (human FXR (NR1H4); [1]),"MRGPRX4 activation, Average (MRGPRX4; E3-9, Conc. (Log[M]) −4.0)","MRGPRX4 activation, Average (MRGPRX4; E3-9, Conc. (Log[M]) −4.5)","MRGPRX4 activation, Average (MRGPRX4; E3-9, Conc. (Log[M]) −5.0)","MRGPRX4 activation, Average (MRGPRX4; E3-9, Conc. (Log[M]) −5.4)","MRGPRX4 activation, Average (MRGPRX4; E3-9, Conc. (Log[M]) −5.9)","MRGPRX4 activation, Average (MRGPRX4; E3-9, Conc. (Log[M]) −6.4)","MRGPRX4 activation, Average (MRGPRX4; E3-9, Conc. (Log[M]) −6.9)","MRGPRX4 activation, Average (MRGPRX4; E3-9, Conc. (Log[M]) −7.3)","MRGPRX4 activation, Average (MRGPRX4; E3-9, Conc. (Log[M]) −7.8)","MRGPRX4 activation, Average (MRGPRX4; E3-9, Conc. (Log[M]) −8.3)",other results
C[C@]12CC[C@@H](O)C[C@H]1CC[C@@H]1[C@@H]2C[C@H](O)[C@]2(C)[C@@H](CCCCCC(=O)O)CC[C@@H]12 [RC-3],0.225,0.233,0.182,0.026,−0.007,−0.027,< 50 µM,B (300%<efficacy <=400%),1 to 10 µM,,,,,,,,,,,"MRGPRX4 activation, fluorescence change (dF/F0), Average (MRGPRX4; Conc. (Log[M]) −8): −0.008; MRGPRX4 activation, fluorescence change (dF/F0), Average (MRGPRX4; Conc. (Log[M]) −9): −0.013"
CC[C@H]1[C@@H](O)[C@@H]2[C@H](CC[C@]3(C)[C@@H]([C@H](C)CCNC(=O)NS(=O)(=O)C4CCC(C)(C)CC4)CC[C@@H]23)[C@@]2(C)CCCC[C@@H]12 [5-5],0.083,0.033,0.017,0.020,0.027,0.060,> 100 µM,C (100%<efficacy <=300%),< 1 µM,,,,,,,,,,,
CC[C@H]1[C@@H](O)[C@@H]2[C@H](CC[C@]3(C)[C@@H]([C@H](C)CCNC(=O)C(=O)NS(=O)(=O)c4ccc(C(C)(C)CF)cc4)CC[C@@H]23)[C@@]2(C)CCCC[C@@H]12 [8-3],,,,,,,> 100 µM,C (100%<efficacy <=300%),< 1 µM,0.023,0.016,0.016,0.023,0.025,0.013,0.013,0.013,0.011,0.018,
CC[C@H]1[C@@H](O)[C@H]2[C@@H]3CC[C@](C)([C@H](C)CCNC(=O)NS(=O)(=O)C[C@]45CCC(CC4=O)C5(C)C)[C@H]3CC[C@@H]2[C@@]2(C)CC[C@H](F)C[C@@H]12 [9-5],,,,,,,> 100 µM,,< 1 µM,0.014,0.016,0.023,0.023,0.018,0.019,0.021,0.019,0.021,0.021,"Efficacy (maximum measured induction of NanoLuc, normalized to CDCA set as 100%) (human FXR (NR1H4)): C (key: A: efficacy >400%; B: 300%<efficacy <=400%; C: 100%<efficacy <=300%; D: efficacy <=100%)"
CC[C@H]1[C@@H](O)[C@@H]2[C@H](CC[C@]3(C)[C@@H]([C@H](C)CCNC(=O)NS(=O)(=O)c4cccc(Cl)c4)CC[C@@H]23)[C@@]2(C)CCCC[C@@H]12 [5-7],0.070,0.027,0.030,0.020,0.020,0.017,> 100 µM,B (300%<efficacy <=400%),< 1 µM,,,,,,,,,,,
CC[C@H]1[C@@H](O)[C@@H]2[C@H](CC[C@]3(C)[C@@H]([C@H](C)CCNC(=O)NS(=O)(=O)c4ccc(N5CCCCC5)nc4)CC[C@@H]23)[C@@]2(C)CCCC[C@@H]12 [5-30],,,,,,,> 100 µM,A (efficacy >400%),< 1 µM,0.014,0.018,0.014,0.027,0.018,0.023,0.021,0.025,0.018,0.028,
CC[C@H]1[C@@H](O)[C@@H]2[C@H](CC[C@]3(C)[C@@H]([C@H](C)CCNC(=O)NS(=O)(=O)c4cc(F)ccc4F)CC[C@@H]23)[C@@]2(C)CCC(F)(F)C[C@@H]12 [10-2],,,,,,,> 100 µM,C (100%<efficacy <=300%),< 1 µM,0.006,0.004,0.010,0.018,0.018,0.019,0.021,0.019,0.018,0.018,
CC[C@H]1[C@@H](O)[C@@H]2[C@H](CC[C@]3(C)[C@@H]([C@H](C)CCNS(=O)(=O)CC(C)C)CC[C@@H]23)[C@@]2(C)CCCC[C@@H]12 [6-4],,,,,,,> 100 µM,C (100%<efficacy <=300%),> 10 µM,0.027,0.011,0.011,0.018,0.016,0.011,0.018,0.018,0.020,0.018,
CC[C@H]1[C@@H](O)[C@@H]2[C@H](CC[C@]3(C)[C@@H]([C@H](C)CCNC(=O)NS(=O)(=O)c4ccc(C(C)(C)C(N)=O)cc4)CC[C@@H]23)[C@@]2(C)CCCC[C@@H]12 [5-16],,0.020,,,,,> 100 µM,C (100%<efficacy <=300%),< 1 µM,,,,,,,,,,,"MRGPRX4 activation, fluorescence change (dF/F0), Average (MRGPRX4; Conc. (Log[M]) −4.0): 0.030; MRGPRX4 activation, fluorescence change (dF/F0), Average (MRGPRX4; Conc. (Log[M]) −5.0): 0.010; MRGPRX4 activation, fluorescence change (dF/F0), Average (MRGPRX4; Conc. (Log[M]) −5.4): 0.020; MRGPRX4 activation, fluorescence change (dF/F0), Average (MRGPRX4; Conc. (Log[M]) −5.9): 0.020; MRGPRX4 activation, fluorescence change (dF/F0), Average (MRGPRX4; Conc. (Log[M]) −6.4): 0.013; MRGPRX4 activation, fluorescence change (dF/F0), Average (MRGPRX4; Conc. (Log[M]) −6.9): 0.013; MRGPRX4 activation, fluorescence change (dF/F0), Average (MRGPRX4; Conc. (Log[M]) −7.3): 0.013; MRGPRX4 activation, fluorescence change (dF/F0), Average (MRGPRX4; Conc. (Log[M]) −7.8): 0.013; MRGPRX4 activation, fluorescence change (dF/F0), Average (MRGPRX4; Conc. (Log[M]) −8.3): 0.025"
CC[C@H]1[C@@H](OC(=O)c2cccc(I)c2)[C@@H]2[C@H](CC[C@]3(C)C([C@H](C)CCC(=O)OC)=CC(=O)[C@@H]23)[C@@]2(C)CCCC[C@@H]12 [3-2],0.130,0.023,−0.003,−0.034,0.008,−0.014,> 100 µM,C (100%<efficacy <=300%),> 10 µM,,,,,,,,,,,"MRGPRX4 activation, fluorescence change (dF/F0), Average (MRGPRX4; Conc. (Log[M]) −8): −0.016; MRGPRX4 activation, fluorescence change (dF/F0), Average (MRGPRX4; Conc. (Log[M]) −9): −0.035"
CC[C@H]1[C@@H](O)[C@@H]2[C@H](CC[C@]3(C)[C@@H]([C@H](C)CCNC(=O)NS(=O)(=O)c4cc(F)ccc4F)CC[C@@H]23)[C@@]2(C)CCCC[C@@H]12 [5-23],,,,,,,> 100 µM,A (efficacy >400%),< 1 µM,,,,,,,,,,,"MRGPRX4 activation, Ave. (MRGPRX4; E3-7, Conc. (Log[M]) −4): −0.027; MRGPRX4 activation, Ave. (MRGPRX4; E3-7, Conc. (Log[M]) −4.5): −0.027; MRGPRX4 activation, Ave. (MRGPRX4; E3-7, Conc. (Log[M]) −5): −0.014; MRGPRX4 activation, Ave. (MRGPRX4; E3-7, Conc. (Log[M]) −5.5): −0.054; MRGPRX4 activation, Ave. (MRGPRX4; E3-7, Conc. (Log[M]) −6): −0.041; MRGPRX4 activation, Ave. (MRGPRX4; E3-7, Conc. (Log[M]) −7): 0.000"
